Measurements published in the supplement of paper PMC10307832.

Key:
Assay in all cases: relative viability (nuclei count vs DMSO), 5 days (fraction); higher = more cells survive
[1] = compound: COc1cc2nccc(Oc3ccc(NC(=O)C4(C(=O)Nc5ccc(F)cc5)CC4)cc3)c2cc1OC [Cabozantinib] + Cc1nc(Nc2ncc(C(=O)Nc3c(C)cccc3Cl)s2)cc(N2CCN(CCO)CC2)n1 [Dasatinib] (partner 0.075 µM)
Outline: (§1)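 One day after seeding in 1536-well plates, lung cancer cell lines were dosed by pin tool. Dosing was either single-drug or a fixed anchor-drug dose plus five library-drug doses (not always all listed) in √10 steps. After 5 days, nuclei were stained in one fix-and-stain step and counted on 4× images, and relative viability is the nuclei count of treated wells over that of vehicle wells, given as the median of duplicate plates.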

[2] = compound: C1=CC(=CC=C1NC(=S)NNC2=C(C=C(C=C2[N+](=O)[O-])C(F)(F)F)[N+](=O)[O-])F [Kobe2602] + Nc1ncn([C@H]2C[C@H](O)[C@@H](CO)O2)c(=O)n1 [Decitabine] (partner 2 µM)
Outline: as §1

[3] = compound: O[C@@H](COc1cccc2ncccc12)CN1CCN([C@@H]2c3ccccc3[C@@H]3[C@H](c4ccccc42)C3(F)F)CC1 [Zosuquidar] + CC(C)C[C@H](NC(=O)[C@H](Cc1ccccc1)NC(=O)c1cnccn1)B(O)O [Bortezomib] (partner 0.002 µM)
Outline: as §1

[4] = compound: O[C@@H](COc1cccc2ncccc12)CN1CCN([C@@H]2c3ccccc3[C@@H]3[C@H](c4ccccc42)C3(F)F)CC1 [Zosuquidar] + CC(=O)Nc1cccc(-n2c(=O)n(C3CC3)c(=O)c3c(Nc4ccc(I)cc4F)n(C)c(=O)c(C)c32)c1 [Trametinib] (partner 0.02 µM)
Outline: as §1

Cell Line | relative viability ([1]; first compound 0.02 µM) | relative viability ([1]; first compound 0.06325 µM) | relative viability ([1]; first compound 0.2 µM) | relative viability ([1]; first compound 0.6325 µM) | relative viability ([1]; first compound 2 µM) | relative viability ([2]; first compound 0.2 µM) | relative viability ([2]; first compound 0.6325 µM) | relative viability ([2]; first compound 2 µM) | relative viability ([2]; first compound 6.325 µM) | relative viability ([2]; first compound 20 µM) | relative viability ([3]; first compound 0.01 µM) | relative viability ([3]; first compound 0.03162 µM) | relative viability ([3]; first compound 0.1 µM) | relative viability ([3]; first compound 0.3162 µM) | relative viability ([3]; first compound 1 µM) | relative viability ([4]; first compound 0.01 µM) | relative viability ([4]; first compound 0.03162 µM) | relative viability ([4]; first compound 0.1 µM) | relative viability ([4]; first compound 0.3162 µM) | relative viability ([4]; first compound 1 µM)
NCI-H1755 | 0.299 | 0.479 | 0.396 | 0.313 | 0.239 | 0.711 | 0.692 | 0.738 | 0.698 | 0.764 | 0.923 | 0.873 | 0.901 | 1.12 | 0.934 | 0.762 | 0.75 | 0.755 | 0.819 | 0.75
A-427 | 0.81 | 0.705 | 0.695 | 0.706 | 0.795 | 0.589 | 0.628 | 0.51 | 0.539 | 0.616 | 0.923 | 0.971 | 0.87 | 1.06 | 0.901 | 0.795 | 0.871 | 0.77 | 0.82 | 0.741
PC-3 [JPC-3] | 0.89 | 1.21 |  | 1.1 | 0.993 | 0.856 | 0.895 | 0.84 | 0.754 | 0.787 | 0.849 | 0.879 | 0.706 | 0.765 | 0.863 | 0.78 | 0.628 | 0.667 | 0.692 | 0.699
LOU-NH91 | 0.432 | 0.579 |  | 0.578 | 0.547 | 0.794 | 0.895 | 0.801 | 0.809 | 0.826 | 0.567 | 0.52 | 0.484 | 0.503 | 0.507 | 0.782 | 0.809 | 0.695 | 0.808 | 0.785
BEN | 0.294 | 0.391 | 0.313 | 0.318 | 0.232 | 0.707 | 0.734 | 0.709 | 0.711 | 0.92 | 0.928 | 0.734 | 0.651 | 0.882 | 0.773 | 1.21 | 1.16 | 0.885 | 0.999 | 0.927
NCI-H2085 | 0.285 | 0.268 | 0.244 | 0.218 | 0.216 | 0.549 | 0.549 | 0.568 | 0.552 | 0.616 | 1.11 | 0.987 | 0.852 | 1.1 | 1.06 | 0.513 | 0.481 |  | 0.617 | 0.548
LC-2-ad |  | 0.641 | 0.492 | 0.295 | 0.283 | 0.664 | 0.888 | 0.943 | 0.825 | 0.815 | 1.07 | 0.975 | 0.989 | 1.26 | 0.933 | 0.91 | 0.901 | 0.812 | 0.92 | 0.911
NCI-H727 | 0.298 | 0.455 | 0.284 | 0.348 | 0.298 | 0.854 | 0.765 | 0.97 |  | 1.13 | 0.876 | 0.938 | 0.708 | 0.787 | 0.828 | 0.391 | 0.378 |  | 0.394 | 0.383
NCI-H1792 |  | 0.878 | 0.77 | 0.727 | 0.644 | 0.489 | 0.512 | 0.461 | 0.472 | 0.526 | 0.836 | 0.495 | 0.906 | 0.907 | 0.96 | 0.522 | 0.427 | 0.41 | 0.535 | 0.421
EPLC-272H | 0.245 | 0.403 | 0.26 | 0.26 | 0.285 | 0.341 | 0.381 | 0.411 | 0.319 | 0.395 | 0.844 | 0.956 | 0.998 | 1.16 | 0.938 | 0.285 | 0.274 | 0.278 | 0.276 | 0.285
EKVX | 0.53 | 0.592 |  | 0.488 | 0.461 | 0.337 | 0.377 | 0.349 | 0.43 | 0.385 | 1.05 | 0.975 | 0.839 | 0.984 | 1.02 | 0.33 | 0.415 |  | 0.359 | 0.335
NCI-H1666 | 0.727 | 0.899 | 0.766 | 0.839 | 0.795 | 0.725 | 0.693 | 0.69 | 0.724 | 0.812 | 1 | 0.905 | 0.714 | 1.15 | 0.798 | 0.833 | 1.03 | 0.859 | 0.954 | 0.811
HCC-15 | 0.548 | 0.717 | 0.651 | 0.568 | 0.598 | 0.662 | 0.649 | 0.537 | 0.627 | 0.62 | 0.925 | 0.998 | 0.956 | 0.995 | 1.04 | 0.393 | 0.374 | 0.345 | 0.397 | 0.38
LCLC-103H | 0.34 | 0.552 | 0.398 | 0.486 | 0.378 | 0.744 | 0.703 | 0.79 | 0.778 | 0.718 | 1.02 | 1.03 | 0.836 | 1.23 | 0.926 | 0.679 | 0.654 | 0.679 | 0.676 | 0.622
NCI-H2405 | 0.171 | 0.232 | 0.215 | 0.212 | 0.215 | 0.737 | 0.749 | 0.732 | 0.745 | 0.806 | 0.931 | 0.974 | 0.861 | 1.02 | 0.959 | 0.64 | 0.621 | 0.617 | 0.754 | 0.617
NCI-H1915 | 0.32 | 0.316 | 0.294 | 0.352 | 0.322 | 0.247 | 0.263 | 0.256 | 0.265 | 0.269 | 1 | 0.995 | 1 | 1.01 | 1 | 0.296 | 0.284 | 0.297 | 0.321 | 0.301
